Values joined by “and” are separate entries in the source; they are usually repeats but may differ in a detail not shown here. Equal entries are not always repeated. Toxic doses and inconclusive results are not listed. Rule for the calls: active = survival T/C of 150% or more; inactive = T/C below 125% in these data.
System: P388 leukemia ip, CD2F1 mice, survival T/C
Assay: NCI In Vivo Anticancer Drug Screen. Data for tumor model P388 Leukemia (intraperitoneal) in CD2F1 (CDF1) mice
Settings: endpoint: median survival time, higher = longer survival
Procedure, shortened: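 Mice carrying the transplanted tumor received test compound or vehicle. Survival was recorded in each group, and the value is the treated-group measurement divided by that of the vehicle-treated control group.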

[1] = dose: 12.5 mg/kg/injection, schedule: Q01DX005 (ip), vehicle: saline with Tween-80
[2] = dose: 6.25 mg/kg/injection, schedule: Q01DX009 (ip), vehicle: saline with Tween-80
[3] = dose: 12.5 mg/kg/injection, schedule: Q01DX009 (ip), vehicle: saline with Tween-80
[4] = dose: 25.0 mg/kg/injection, schedule: Q01DX009 (ip), vehicle: saline with Tween-80
[5] = dose: 50.0 mg/kg/injection, schedule: Q01DX009 (ip), vehicle: saline with Tween-80
[6] = dose: 60.0 mg/kg/injection, schedule: Q01DX005 (ip), vehicle: Klucel (hydroxypropylcellulose) (HPC)
[7] = dose: 240.0 mg/kg/injection, schedule: Q01DX005 (ip), vehicle: Klucel (hydroxypropylcellulose) (HPC)
[8] = dose: 25.0 mg/kg/injection, schedule: Q01DX005 (ip), vehicle: Klucel (hydroxypropylcellulose) (HPC)
[9] = dose: 50.0 mg/kg/injection, schedule: Q01DX005 (ip), vehicle: Klucel (hydroxypropylcellulose) (HPC)
[10] = dose: 100.0 mg/kg/injection, schedule: Q01DX005 (ip), vehicle: Klucel (hydroxypropylcellulose) (HPC)
[11] = dose: 25.0 mg/kg/injection, schedule: Q01DX009 (ip), vehicle: saline
[12] = dose: 50.0 mg/kg/injection, schedule: Q01DX009 (ip), vehicle: saline
[13] = dose: 100.0 mg/kg/injection, schedule: Q01DX009 (ip), vehicle: saline
[14] = dose: 100.0 mg/kg/injection, schedule: Q01DX009 (ip), vehicle: saline with Tween-80
[15] = dose: 200.0 mg/kg/injection, schedule: Q01DX009 (ip), vehicle: saline with Tween-80
[16] = dose: 60.0 mg/kg/injection, schedule: Q01DX005 (ip), vehicle: saline with Tween-80
[17] = dose: 120.0 mg/kg/injection, schedule: Q01DX005 (ip), vehicle: saline with Tween-80
[18] = dose: 240.0 mg/kg/injection, schedule: Q01DX005 (ip), vehicle: saline with Tween-80
[19] = dose: 50.0 mg/kg/injection, schedule: Q01DX005 (ip), vehicle: saline with Tween-80
[20] = dose: 200.0 mg/kg/injection, schedule: Q01DX009 (ip), vehicle: saline

Measured: T/C

CNC(=O)OCc1ccc(NCCN(C)C)c2c(=O)c3cc(O)ccc3sc12
inactive: [1] 112 % of control

CC(=O)N=c1nc(N)nc2n(O)cc(-c3ccccc3)nc1-2
inactive: dose: 31.25 mg/kg/injection, schedule: Q01DX009 (ip), vehicle: saline with Tween-80 113 % of control | dose: 62.5 mg/kg/injection, schedule: Q01DX009 (ip), vehicle: saline with Tween-80 99 % of control | dose: 125.0 mg/kg/injection, schedule: Q01DX009 (ip), vehicle: saline with Tween-80 97 % of control

O=C(CCCN1CCC(C(=O)c2ccc(F)cc2)CC1)c1ccc(F)cc1
inactive: dose: 1.56 mg/kg/injection, schedule: Q01DX009 (ip), vehicle: saline 92 % of control | dose: 3.13 mg/kg/injection, schedule: Q01DX009 (ip), vehicle: saline 93 % of control | [2] 100 % of control | dose: 6.25 mg/kg/injection, schedule: Q01DX009 (ip), vehicle: saline 104 % of control | [3] 100 % of control | [4] 110 % of control | [5] 118 % of control

Cc1ccc(N(CN2C(=O)CCC2=O)CS(=O)(=O)c2ccc(Cl)cc2)cc1
inactive: dose: 15.0 mg/kg/injection, schedule: Q01DX005 (ip), vehicle: Klucel (hydroxypropylcellulose) (HPC) 107 % of control | dose: 30.0 mg/kg/injection, schedule: Q01DX005 (ip), vehicle: Klucel (hydroxypropylcellulose) (HPC) 91 % of control | [6] 93 % of control and 95 % of control | [7] 90 % of control

COc1ccccc1/C=C/C(=O)c1ccccc(=O)c1O
inactive: [8] 101 % of control | [9] 104 % of control | [10] 100 % of control | dose: 200.0 mg/kg/injection, schedule: Q01DX005 (ip), vehicle: Klucel (hydroxypropylcellulose) (HPC) 109 % of control

O=C(O)c1ccc(NC(=O)C2C(=O)C(=O)N(c3ccc(C(=O)O)cc3)C2=O)cc1 (stereo not drawn)
inactive: dose: 50.0 mg/kg/injection, schedule: Q01DX009 (ip), vehicle: Klucel (hydroxypropylcellulose) (HPC) 104 % of control | dose: 100.0 mg/kg/injection, schedule: Q01DX009 (ip), vehicle: Klucel (hydroxypropylcellulose) (HPC) 100 % of control | dose: 200.0 mg/kg/injection, schedule: Q01DX009 (ip), vehicle: Klucel (hydroxypropylcellulose) (HPC) 103 % of control

CC(=O)N(Cc1cnc2nc(N)[nH]c(=O)c2n1)c1ccc(C(=O)NC(CCC(=O)O)C(=O)O)cc1 (stereo not drawn)
inactive: [11] 90 % of control | [12] 100 % of control | [13] 101 % of control and 104 % of control

COc1ccc(S(=O)(=O)c2cnc(N)nc2N)cc1
inactive: dose: 100.0 mg/kg/injection, schedule: Q01DX001 (ip), vehicle: saline 97 % of control | dose: 200.0 mg/kg/injection, schedule: Q01DX001 (ip), vehicle: saline 93 % of control | dose: 400.0 mg/kg/injection, schedule: Q01DX001 (ip), vehicle: saline 90 % of control

CCOC(=O)/C=C/c1nc(OCC)c(C)c(C(=O)OCC)n1
inactive: dose: 12.5 mg/kg/injection, schedule: Q01DX009 (ip), vehicle: other 95 % of control | dose: 25.0 mg/kg/injection, schedule: Q01DX009 (ip), vehicle: other 102 % of control | dose: 50.0 mg/kg/injection, schedule: Q01DX009 (ip), vehicle: other 98 % of control | dose: 100.0 mg/kg/injection, schedule: Q01DX009 (ip), vehicle: other 103 % of control | dose: 200.0 mg/kg/injection, schedule: Q01DX009 (ip), vehicle: other 90 % of control

C=C(Br)C(=O)N1CCCC1C(=O)NC (stereo not drawn)
inactive: [11] 110 % of control | [12] 91 % of control | [13] 98 % of control

COc1cc(C(C)c2cc3c(cc2OC)OCO3)ccc1OCc1ccccc1 (stereo not drawn)
inactive: dose: 25.0 mg/kg/injection, schedule: Q01DX005 (ip), vehicle: distilled water + Tween-80 103 % of control | dose: 50.0 mg/kg/injection, schedule: Q01DX005 (ip), vehicle: distilled water + Tween-80 99 % of control and 87 % of control | dose: 100.0 mg/kg/injection, schedule: Q01DX005 (ip), vehicle: distilled water + Tween-80 100 % of control | dose: 200.0 mg/kg/injection, schedule: Q01DX005 (ip), vehicle: distilled water + Tween-80 94 % of control

c1cc2c3c(c1)CCC3CCC2 (stereo not drawn)
inactive: [5] 112 % of control | [14] 109 % of control and 117 % of control | [15] 118 % of control

CCCCOC1NC(=O)NC(=O)C1(F)C(=O)OCC (stereo not drawn)
inactive: [16] 108 % of control | [17] 117 % of control | [18] 121 % of control

COC(=O)c1cccc2c[n+]3c(cc12)-c1[nH]c2cc(OC)ccc2c1CC3
inactive: [19] 100 % of control | dose: 100.0 mg/kg/injection, schedule: Q01DX005 (ip), vehicle: saline with Tween-80 99 % of control | dose: 200.0 mg/kg/injection, schedule: Q01DX005 (ip), vehicle: saline with Tween-80 108 % of control

C=CC(=O)NCCCCC(N)C(=O)O (stereo not drawn)
inactive: [12] 100 % of control | [13] 100 % of control | [20] 97 % of control

COc1ccc2c(C)cc(=O)sc2c1
inactive: dose: 50.0 mg/kg/injection, schedule: Q01DX009 (ip), vehicle: saline + Tween-80 + alcohol 101 % of control | dose: 100.0 mg/kg/injection, schedule: Q01DX009 (ip), vehicle: saline + Tween-80 + alcohol 104 % of control | dose: 200.0 mg/kg/injection, schedule: Q01DX009 (ip), vehicle: saline + Tween-80 + alcohol 100 % of control

CC(C)(C)OC(=O)CS(=O)Nc1ccccc1O (stereo not drawn)
inactive: [6] 105 % of control | dose: 120.0 mg/kg/injection, schedule: Q01DX005 (ip), vehicle: Klucel (hydroxypropylcellulose) (HPC) 108 % of control | [7] 97 % of control

COCCC/C=C\N1CCOCC1
inactive: [12] 99 % of control | [13] 101 % of control | [20] 95 % of control

CN1N=Nc2ccccc2C1O (stereo not drawn)
inactive: [8] 92 % of control | [9] 95 % of control | [10] 116 % of control

C/C(=C1\C(=O)Oc2c(ccc3ccccc23)C1=O)c1ccc2ccccc2c1O
inactive: [1] 99 % of control | dose: 25.0 mg/kg/injection, schedule: Q01DX005 (ip), vehicle: saline with Tween-80 99 % of control | [19] 86 % of control and 97 % of control

COc1ccc(C2COc3cc(O)c(O)cc3C2)cc1 (stereo not drawn)
inactive: [16] 97 % of control | [17] 107 % of control | [18] 97 % of control

C=C(CCCC)C(=O)OC
inactive: [5] 102 % of control | [14] 111 % of control | [15] 108 % of control

C/C(CCl)=N/NC1=NC(c2ccccc2Cl)P(=O)(NCCCNP2(=O)SC(N/N=C(/C)CCl)=NC2c2ccccc2Cl)S1 (stereo not drawn)
inactive: [16] 99 % of control | [17] 98 % of control | [18] 93 % of control

O=P1(N(CCCl)CCCl)Nc2cc3ccccc3cc2N1
inactive: dose: 3.13 mg/kg/injection, schedule: Q01DX009 (ip), vehicle: saline with Tween-80 103 % of control | [2] 96 % of control | [3] 99 % of control | [4] 100 % of control

O=C1NC(=O)C2(CCCC2)c2ccncc21
inactive: dose: 6.25 mg/kg/injection, schedule: Q04DX002 (ip), vehicle: saline with Tween-80 96 % of control | dose: 12.5 mg/kg/injection, schedule: Q04DX002 (ip), vehicle: saline with Tween-80 96 % of control

CCC(C)([N+](=O)[O-])[N+](=O)[O-]
inactive: dose: 0.19 mg/kg/injection, schedule: Q01DX009 (ip), vehicle: Klucel (hydroxypropylcellulose) (HPC) 102 % of control | dose: 0.39 mg/kg/injection, schedule: Q01DX009 (ip), vehicle: Klucel (hydroxypropylcellulose) (HPC) 97 % of control | dose: 0.78 mg/kg/injection, schedule: Q01DX009 (ip), vehicle: Klucel (hydroxypropylcellulose) (HPC) 99 % of control and 96 % of control

CCc1c(O)sc2c(c1=O)C(=NCC(C)C)CC(C)(C)N2
inactive: dose: 50.0 mg/kg/injection, schedule: Q01DX005 (ip), vehicle: saline 86 % of control | dose: 100.0 mg/kg/injection, schedule: Q01DX005 (ip), vehicle: saline 94 % of control | dose: 200.0 mg/kg/injection, schedule: Q01DX005 (ip), vehicle: saline 97 % of control
